Laboratory results as given in US20240391912A1, “MORPHIC FORMS OF CFT7455 AND METHODS OF MANUFACTURE THEREOF” (C4 THERAPEUTICS, INC., priority 2022, published 2024).
≈ marks a conversion by molar mass, not a printed value. Entries after “also recorded” stand apart in the source; their conditions may differ.

Columns and labels:
Type in all cases: physicochemical
[1] = Water activity study of Compound 1 Form I at 25° C. for 1 week; conditions: for change of morphic form in solvents with high water content (water activity study): acetone/water, DMSO/water, pure water, 25° C.
Method: Water activity experiments were conducted at 25° C. in 7 different water activities solvent mixtures to determine critical water activity of Compound 1 Form I. About 20 mg of Compound 1 Form I was added to 1.0 mL of acetone/water or DMSO/water mixtures and stirred at 400 rpm and 25° C. for 1 week.

[2] = Behavior of Compound 1 Form I under heating and cooling (DSC cycles); conditions: for Melting onset: reheat to 300° C. at 10° C./min
Method: Polymorphic behavior of Compound 1 Form I (free form) was investigated by two different heating-cooling cycles of DSC. The results were summarized in Table 6. • HCH1: 30° C. to 300° C. at 10° C./min; 300° C. to −20° C. at 20° C./min; reheat to 300° C. at 10° C./min. • HCH2: 30° C. to 300° C. at 10° C./min; 300° C. to −20° C. at 2° C./min; reheat to 300° C. at 10° C./min.

[3] = Approximate solubility of Compound 1 Form I at 25° C. and 50° C. (visual observation); conditions: thermodynamic from solid
Method: Max. volume of each solvent added was 1 mL. Approximate solubility was determined by visual observation.

[4] = Equilibration of Compound 1 Form I with solvents at 50° C. for 1 week (XRPD)
Method: About 50 mg of Compound 1 Form I (free form) was equilibrated in 1 mL of solvent at 50° C. for 1 week with a stirring plate. The obtained suspension was filtered and the solid part (wet cake) was investigated by XRPD.

[5] = Scale-up experiment (200 mg) and characterization of new polymorphs of Compound 1
Method: Scale-up 1: About 200 mg of Compound 1 Form I was dissolved in 10 mL THF/Water (95:5, v:v) at 40° C. […] Compound 1 Form IV was obtained. It was subjected to characterization.
Scale-up 2: About 200 mg of Compound 1 Form I was dissolved in 10 mL THF/Water (95:5, v:v) at 40° C. […] It was subjected to characterization.

[6] = Precipitation of Compound 1 by addition of anti-solvent to DMSO solution (XRPD, residual solvent); conditions: for residual DMSO: 1H-NMR after vacuum drying at 80° C. for 2 hours; for Notes (appearance) / XRPD: solvent DMSO
Method: About 20 mg of Compound 1 Form I (free form) was dissolved in DMSO and anti-solvent was added into the obtained solution slowly. Precipitates were collected by filtration. The solid part (wet cake) was investigated by XRPD. Residual solvent of these solids was also analyzed by ^1H-NMR after vacuum dried at 80° C. for 2 hours.

[7] = Crystallization of Compound 1 at room temperature by slow evaporation (XRPD)
Method: About 20 mg of Compound 1 Form I (free form) was dissolved and filtered by 0.45 μm nylon filter. Obtained solutions were evaporated slowly at ambient condition. Solid residues were examined for their polymorphic form.

[8] = Equilibration of Compound 1 Form I with solvents at 25° C. for 2 weeks (XRPD)
Method: About 30 mg of Compound 1 Form I (free form) was equilibrated in 1 mL of solvent at 25° C. for 2 weeks with a stirring plate. The obtained suspension was filtered. The solid part (wet cake) was investigated b XRPD.

[9] = solids after equilibration in EtOH
[10] = anti-solvent Water, about 2 mg of seeds added
[11] = solids after equilibration in EtOH, 25° C., 2 weeks

SMILES: O=C1CC[C@H](N2C(=O)c3cccc4c(Cc5ccc(CN6CCOCC6)cc5)ccc2c34)C(=O)N1 [Compound 1 Form I, (S)-3-(6-(4-(morpholinomethyl)benzyl)-2-oxobenzo[cd]indol-1(2H)-yl)piperidine-2,6-dione]
- XRPD ([1]; Acetone, a.w. 0, 25° C.): Form I
- XRPD ([1]; Acetone/Water (91:9, v:v), a.w. 1, 25° C.): Form I
- XRPD ([1]; Acetone/Water (94:6, v:v), a.w. 0.5, 25° C.): Form I
- XRPD ([1]; Acetone/Water (97:3, v:v), a.w. 0.3, 25° C.): Form I
- XRPD ([1]; Acetone/Water (99:1, v:v), a.w. 0.1, 25° C.): Form I
- XRPD ([1]; DMSO/Water (64:36, v:v), a.w. 0.5, 25° C.): Form I
- XRPD ([1]; Water, a.w. 1, 25° C.): Form I
- change of morphic form in solvents with high water content (water activity study) [1]: no significant changes to the morphic form
- change of morphic form in solvents with high water content (water activity study) ([1]; listed as Form I): only Form I was obtained
- Melting onset ([2]; HCH1: 30° C. to 300° C. at 10° C./min, 300° C. to −20° C. at 20° C./min): Melting onset 231.4° ° C.
- enthalpy ([2]; HCH1: cooling 300° C. to −20° C. at 20° C./min): C.; enthalpy 115 J/g
- Melting onset ([2]; HCH2: 30° C. to 300° C. at 10° C./min, 300° C. to −20° C. at 2° C./min): Melting onset 231.3° ° C.
- enthalpy ([2]; HCH2: cooling 300° C. to −20° C. at 2° C./min): C.; enthalpy 108 J/g
- solubility ([3]; DCM, 25 °C, organic solvent or mixture): 8000 to 13000 µg/mL (≈ 17 to 27.7 mM)
- solubility ([3]; DCM, 50 °C, organic solvent or mixture): 16000 to 25000 µg/mL (≈ 34.1 to 53.2 mM)
- solubility ([3]; DCM:MeOH (v:v = 1:1), 25 °C, organic solvent or mixture, DCM:MeOH (v:v = 1:1), 25° C.): 17000 to 20000 µg/mL (≈ 36.2 to 42.6 mM)
- solubility ([3]; DCM:MeOH (v:v = 1:1), 50 °C, organic solvent or mixture, DCM:MeOH (v:v = 1:1), 50° C.): 29000 to 33000 µg/mL (≈ 61.8 to 70.3 mM)
- solubility ([3]; DMSO, 25 °C, organic solvent or mixture): 83000 to 125000 µg/mL (≈ 177 to 266 mM)
- solubility ([3]; DMSO, 25 °C, organic solvent or mixture, in DMSO, solubilized at about 25° C.): ≥ 50000 µg/mL
- solubility ([3]; DMSO, 50 °C, organic solvent or mixture): 167000 to 250000 µg/mL (≈ 356 to 532 mM)
- solubility ([3]; Ethanol:Water (8:2, v:v), 25 °C, organic solvent or mixture, Ethanol:Water (8:2, v:v), 25° C.): < 5000 µg/mL
- solubility ([3]; Ethanol:Water (8:2, v:v), 50 °C, organic solvent or mixture, Ethanol:Water (8:2, v:v), 50° C.): < 10000 µg/mL
- solubility ([3]; MTBE, 25 °C, organic solvent or mixture): < 5000 µg/mL
- solubility ([3]; MTBE, 50 °C, organic solvent or mixture): < 10000 µg/mL
- solubility ([3]; THF, 25 °C, organic solvent or mixture): 8000 to 13000 µg/mL (≈ 17 to 27.7 mM)
- solubility ([3]; THF, 50 °C, organic solvent or mixture): 16000 to 25000 µg/mL (≈ 34.1 to 53.2 mM)
- solubility ([3]; THF:Water (v:v = 95:5), 25 °C, organic solvent or mixture, THF:Water (v:v = 95:5), 25° C.): 17000 to 20000 µg/mL (≈ 36.2 to 42.6 mM)
- solubility ([3]; THF:Water (v:v = 95:5), 50 °C, organic solvent or mixture, THF:Water (v:v = 95:5), 50° C.): 40000 to 50000 µg/mL (≈ 85.2 to 106 mM)
- solubility ([3]; acetone, 25 °C, organic solvent or mixture): < 5000 µg/mL
- solubility ([3]; acetone, 50 °C, organic solvent or mixture): < 10000 µg/mL
- solubility ([3]; acetonitrile, 25 °C, organic solvent or mixture): < 5000 µg/mL
- solubility ([3]; acetonitrile, 50 °C, organic solvent or mixture): < 10000 µg/mL
- solubility ([3]; ethanol, 25 °C, organic solvent or mixture): < 5000 µg/mL
- solubility ([3]; ethanol, 50 °C, organic solvent or mixture): < 10000 µg/mL
- solubility ([3]; ethyl acetate, 25 °C, organic solvent or mixture): < 5000 µg/mL
- solubility ([3]; ethyl acetate, 50 °C, organic solvent or mixture): < 10000 µg/mL
- solubility ([3]; heptane, 25 °C, organic solvent or mixture): < 5000 µg/mL
- solubility ([3]; heptane, 50 °C, organic solvent or mixture): < 10000 µg/mL
- solubility ([3]; methanol, 25 °C, organic solvent or mixture, approximate, visual observation): < 5000 µg/mL
- solubility ([3]; methanol, 50 °C, organic solvent or mixture, approximate, visual observation): < 10000 µg/mL
- solubility ([3]; water, 25 °C): < 5000 µg/mL
- solubility ([3]; water, 50 °C): < 10000 µg/mL
- XRPD ([4]; equilibration in ACN): Form I
- XRPD ([4]; equilibration in Acetone): Form I
- XRPD ([4]; equilibration in DCM): Form I
- XRPD ([4]; equilibration in DCM:MeOH (v:v = 1:1)): Form I
- XRPD ([4]; equilibration in DCM:THF(v:v = 8:2)): Form I
- XRPD ([4]; equilibration in EA): Form I
- XRPD ([4]; equilibration in EtOH): Form I
- XRPD ([4]; equilibration in MeOH): Form I
- XRPD ([4]; equilibration in THF, wet cake): Form I
- XRPD ([4]; equilibration in THF:Water (v:v = 95:5)): Form I
- Melting onset [4, 9]: Melting onset: 239.5° C.,
- enthalpy [4, 9]: enthalpy: 109 J/g
- residual DCM [4, 9]: 0.4% residual DCM
- Stoichiometry: DCM ([5]; 1H-NMR, listed as Form I): 0.6% DCM
- DSC enthalpy ([5]; DSC, 10° C./min): enthalpy 114 J/g
- DSC melting onset ([5]; DSC, 10° C./min): 233.9° C.;
- Thermogravimetry weight loss ([5]; TGA, 10° C./min, at 225° C.): About 2.0%
- residual DMSO ([6]; DMSO/EtOH precipitate): 0.05 equiv. residual
- residual DMSO ([6]; DMSO/MeOH precipitate): 0.14 equiv. residual
- residual DMSO ([6]; DMSO/Water precipitate): 0.90 equiv. residual
- Notes (appearance) ([6]; anti-solvent Acetone, held at 5° C. for 2 days, no solid obtained): Clear solution^a
- Notes (appearance) ([6]; anti-solvent EtOAc): Clear solution
- Notes (appearance) ([6]; anti-solvent EtOH): Suspension
- XRPD ([6]; anti-solvent EtOH): −
- Notes (appearance) ([6]; anti-solvent MeOH): Suspension
- XRPD ([6]; anti-solvent MeOH, wet cake): −
- Notes (appearance) ([6]; anti-solvent Water): Suspension
- XRPD ([6]; anti-solvent Water): −
- Notes (appearance) [6, 10]: Suspension^b
- XRPD [6, 10]: −
- Notes (form obtained) ([7]; slow evaporation from DCM): Form I
- XRPD (form change) ([7]; slow evaporation from DCM at ambient condition): −
- Notes (form obtained) ([7]; slow evaporation from MeOH/DCM(v:v = 1:1)): Form II
- XRPD (form change) ([7]; slow evaporation from MeOH/DCM(v:v = 1:1) at ambient condition): + (Form changed detected.)
- Notes (form obtained) ([7]; slow evaporation from THF): Form III
- XRPD (form change) ([7]; slow evaporation from THF at ambient condition): + (Form changed detected.)
- Notes (form obtained) ([7]; slow evaporation from THF:Water (v:v = 95:5)): Form III
- XRPD (form change) ([7]; slow evaporation from THF:Water (v:v = 95:5) at ambient condition): + (Form changed detected.)
- stability of the form in water (equilibration experiments) ([8]; alone in water / pure water): very stable; also recorded: stable
- XRPD ([8]; equilibration in ACN, 25° C., 2 weeks): Form I
- XRPD ([8]; equilibration in Acetone, 25° C., 2 weeks): Form I
- XRPD ([8]; equilibration in DCM, 25° C., 2 weeks): Form I
- XRPD ([8]; equilibration in DCM:MeOH (v:v = 1:1), 25° C., 2 weeks): Form I
- XRPD ([8]; equilibration in DCM:THF(v:v = 8:2), 25° C., 2 weeks): Form I
- XRPD ([8]; equilibration in EA, 25° C., 2 weeks): Form I
- XRPD ([8]; equilibration in EtOH, 25° C., 2 weeks): Form I
- XRPD ([8]; equilibration in MeOH, 25° C., 2 weeks): Form I
- XRPD ([8]; equilibration in THF, 25° C., 2 weeks, wet cake): Form I
- XRPD ([8]; equilibration in THF:Water (v:v = 95:5), 25° C., 2 weeks): Form I
- Melting onset [8, 11]: Melting onset: 239.0° C.,
- enthalpy [8, 11]: enthalpy: 107 J/g
- residual DCM [8, 11]: 0.4% residual DCM
